Where a SMILES comes first, the peptide text is derived from it. Bridges are numbered along the chain shown (N, C = ends). The star is where a group is joined. MeO(CH2CH2O)23CH2CH2CO = COCCOCCOCCOCCOCCOCCOCCOCCOCCOCCOCCOCCOCCOCCOCCOCCOCCOCCOCCOCCOCCOCCOCCOCCC(=O)*
Target: T1, NPR-B (Mus musculus, UniProt Q6VVW5)
T1 construct: Murine NIH3T3 cells express endogenously the CNP signaling receptor, NPR-B; endogenous in cells; host or cells: NIH3T3
T1 sequence (Q6VVW5 17-1047): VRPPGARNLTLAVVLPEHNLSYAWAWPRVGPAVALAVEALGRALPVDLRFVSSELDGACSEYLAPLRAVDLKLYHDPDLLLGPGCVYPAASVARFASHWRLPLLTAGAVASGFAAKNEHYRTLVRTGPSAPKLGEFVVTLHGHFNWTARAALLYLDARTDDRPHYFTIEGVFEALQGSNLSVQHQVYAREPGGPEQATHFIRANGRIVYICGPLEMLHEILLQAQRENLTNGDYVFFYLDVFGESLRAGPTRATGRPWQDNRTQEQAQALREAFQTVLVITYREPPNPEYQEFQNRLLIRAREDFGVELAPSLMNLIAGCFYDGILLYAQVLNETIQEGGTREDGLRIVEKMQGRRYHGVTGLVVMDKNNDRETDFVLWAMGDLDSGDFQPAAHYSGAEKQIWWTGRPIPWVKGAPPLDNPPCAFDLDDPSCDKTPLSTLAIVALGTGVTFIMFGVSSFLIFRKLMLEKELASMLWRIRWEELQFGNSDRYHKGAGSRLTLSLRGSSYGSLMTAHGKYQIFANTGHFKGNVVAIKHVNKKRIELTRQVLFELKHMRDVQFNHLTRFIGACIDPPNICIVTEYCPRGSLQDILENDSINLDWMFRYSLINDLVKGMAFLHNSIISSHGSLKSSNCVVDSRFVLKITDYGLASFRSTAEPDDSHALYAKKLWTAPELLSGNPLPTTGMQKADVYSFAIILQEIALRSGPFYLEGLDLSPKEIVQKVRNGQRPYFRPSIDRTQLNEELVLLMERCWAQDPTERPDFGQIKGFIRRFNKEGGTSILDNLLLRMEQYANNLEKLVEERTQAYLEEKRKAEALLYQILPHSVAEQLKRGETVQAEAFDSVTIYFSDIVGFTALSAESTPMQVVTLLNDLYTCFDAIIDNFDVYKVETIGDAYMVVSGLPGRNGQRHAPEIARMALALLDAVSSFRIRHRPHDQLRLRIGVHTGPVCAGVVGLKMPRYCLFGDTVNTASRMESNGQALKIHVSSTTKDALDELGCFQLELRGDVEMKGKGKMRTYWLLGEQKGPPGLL
Assay: stimulation of cGMP production in NIH3T3 cells
Format: cell-based, murine
Settings: NIH3T3 cells
Procedure: To determine the functional activity of CNP variants, the production of cGMP was measured in NIH3T3 cells exposed to the CNP variants. Murine NIH3T3 cells express endogenously the CNP signaling receptor, NPR-B, which shares 98% protein sequence identity with human NPR-B. NIH3T3 cells were cultured in high glucose Dulbecco's Modified Eagle Medium supplemented with 10% fetal calf serum and antibiotics at 37° C. with 5% CO2). Twenty four to 48 hours prior to signaling, cells were passaged to 12-well plates with a density of 2-5×10^5 cells per well at the time of the assay. CNP variants were resuspended in 1 mM HCl to a stock concentration of 1 mg/mL (455 uM for wtCNP22) and subsequently diluted to a 30 uM working stock solution with phosphate-buffered saline (PBS). Ten-fold serial dilutions were prepared in phosphate-buffered saline. Culture medium was removed from the cells and replaced with 0.4 mL PBS/Dulbecco's modified Eagle medium (50/50, v/v) containing 0.75 mM isobutylmethylxanine. Plates were incubated at 37° C., 5% CO2 for 15 minutes before addition of 0.2 mL CNP variant in PBS and continued incubation at 37° C. for 15 minutes. Reactions were stopped by the addition of 0.2 mL lysis buffer supplied with the CatchPoint cGMP assay kit (Molecular Devices), and cGMP production was determined with the CatchPoint cGMP Assay (Molecular Devices). All stimulation experiments were performed in duplicate.
Tables 1-4 summarize the ability of CNP variants having backbone or side chain modifications, amino acid substitutions, N-terminal amino acid extensions, and/or N-terminal PEGylation, respectively, to stimulate cGMP production in NIH3T3 cells. In all four tables, the values for cGMP production in NIH3T3 cells exposed to 10 nM or 1 uM CNP variant are normalized to cell number and cGMP production in the presence of 1 uM wtCNP22.

CC[C@H](C)[C@@H]1NC(=O)[C@H](CCCNC(=N)N)NC(=O)[C@H](CC(=O)O)NC(=O)[C@H](CC(C)C)NC(=O)[C@H](CCCCN)NC(=O)[C@H](CC(C)C)NC(=O)CNC(=O)[C@H](Cc2ccccc2)NC(=O)[C@@H](NC(=O)CNC(=O)[C@H](CCCNC(=N)N)NC(=O)[C@H](CO)NC(=O)[C@H](CC(C)C)NC(=O)CNC(=O)[C@H](CCCNC(=N)N)NC(=O)[C@H](CCCNC(=N)N)NC(=O)[C@H](CC(N)=O)NC(=O)[C@H](C)NC(=O)CNC(=O)CCOCCOCCOCCOCCOCCOCCOCCOCCOCCOCCOCCOCCOCCOCCOCCOCCOCCOCCOCCOCCOCCOCCOCCOC)CSSC[C@@H](C(=O)O)NC(=O)CNC(=O)[C@H](CC(C)C)NC(=O)CNC(=O)[C@H](CO)NC(=O)[C@H](CCSC)NC(=O)[C@H](CO)NC(=O)CNC1=O [PEO24-GANRR-CNP22(K4R)] ({MeO(CH2CH2O)23CH2CH2CO}-GANRRGLSRGCFGLKLDRIGSMSGLGC-OH; disulfide 11-27)
NPR-B stimulation activity / cGMP production compared with wtCNP22 (in words): stimulated greater cGMP production than PEO24-CNP22 and PEO24-CNP22 (K4R)

Reference: patent USRE48267E1, “Variants of C-type natriuretic peptide” (priority 2009, dated 2020)
